# In patent US20100010096A1, “Methadone chiral isolate as an improved pharmaceutical” (priority 2006, published 2010):
# Molecular target: T1, IKr channel (Homo sapiens, UniProt Q12809)
# T1 construct: expressed in transfected cells; host or cells: Xenopus oocytes (cRNA injection)
# Experiment: IKr inhibition in xenopus oocytes overexpressing the IKr channel, two electrode voltage clamp
# Assay type: cell-based
# Settings: methadone racemate 0.01 to 3 mM, FIG. 3
# T1 sequence (Q12809 whole entry): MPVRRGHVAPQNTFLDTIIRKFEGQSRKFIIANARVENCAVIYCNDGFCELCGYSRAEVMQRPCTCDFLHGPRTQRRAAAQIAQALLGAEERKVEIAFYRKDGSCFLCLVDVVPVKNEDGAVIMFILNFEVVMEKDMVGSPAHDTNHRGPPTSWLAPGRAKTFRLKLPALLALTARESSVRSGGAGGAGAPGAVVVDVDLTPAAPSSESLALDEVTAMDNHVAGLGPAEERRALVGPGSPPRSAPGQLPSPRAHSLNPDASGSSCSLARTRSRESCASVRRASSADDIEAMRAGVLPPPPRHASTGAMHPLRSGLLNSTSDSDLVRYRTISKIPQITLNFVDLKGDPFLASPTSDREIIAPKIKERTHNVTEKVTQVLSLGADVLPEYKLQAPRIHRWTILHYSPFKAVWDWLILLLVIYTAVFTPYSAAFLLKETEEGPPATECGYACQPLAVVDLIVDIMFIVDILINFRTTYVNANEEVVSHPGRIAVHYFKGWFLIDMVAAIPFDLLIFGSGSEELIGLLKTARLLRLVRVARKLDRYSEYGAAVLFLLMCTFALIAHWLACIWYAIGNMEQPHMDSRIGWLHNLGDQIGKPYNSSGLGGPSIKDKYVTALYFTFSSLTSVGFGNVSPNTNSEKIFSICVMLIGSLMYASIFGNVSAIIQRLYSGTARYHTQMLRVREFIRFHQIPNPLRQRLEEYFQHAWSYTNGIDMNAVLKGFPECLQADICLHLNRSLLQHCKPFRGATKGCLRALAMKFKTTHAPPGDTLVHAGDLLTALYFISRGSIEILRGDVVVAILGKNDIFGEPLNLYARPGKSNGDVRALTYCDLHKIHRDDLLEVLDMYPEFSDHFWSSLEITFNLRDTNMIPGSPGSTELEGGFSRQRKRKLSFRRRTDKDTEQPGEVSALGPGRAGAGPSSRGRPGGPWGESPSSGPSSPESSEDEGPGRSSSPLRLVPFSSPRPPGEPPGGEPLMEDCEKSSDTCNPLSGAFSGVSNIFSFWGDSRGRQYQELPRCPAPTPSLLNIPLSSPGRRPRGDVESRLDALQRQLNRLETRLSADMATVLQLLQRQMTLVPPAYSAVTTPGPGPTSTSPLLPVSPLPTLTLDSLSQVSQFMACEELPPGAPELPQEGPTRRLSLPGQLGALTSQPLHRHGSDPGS
smiles,measurement,value
CCC(=O)C(CC(C)N(C)C)(c1ccccc1)c1ccccc1 (racemic) [methadone],inhibition of the IKr current,dose related inhibition of the IKr current
